Results from PubChem BioAssay AID449764 (Southern Research Specialized Biocontainment Screening …, 2010).

System: Mycobacterium tuberculosis H37Rv growth inhibition, no glycerol
Experiment: Mycobacterium tuberculosis H37Rv growth inhibition, no glycerol, confirmatory dose response (AID 449764);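 further: growth read after 7 days of incubation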
Details: for IC90: measured here: IC90 growth inhibition

Row | Compound | IC90 [µM] | IC50 [µM]
1 | CCCCCC1CC(CC(=O)NC(=S)Nc2ccc([N+](=O)[O-])cc2)C(=O)O1 (configuration not stated) | > 100 | –
2 | O=C(CN1CCN(Cc2ccc(Cl)cc2)CC1)N/N=C/C=C/c1ccccc1[N+](=O)[O-] | 45.6 | 36.3
3 | Cc1[nH]c2ccccc2c1/C=N/Nc1nc(Nc2ccccc2)nc(N2CCOCC2)n1 | 13.6 | 6.68
4 | CCN(CC)CCN(C(=O)c1ccc(S(=O)(=O)N2CCCC2)cc1)c1nc2cc(C)cc(C)c2s1 | 13.5 | 11.7
5 | Cc1ccc(/C=C2\SC(N3CCCC3)=NC2=O)cc1 | 4.62 | 0.74
6 | O=c1c2c(nc3nc(NCc4ccc(Cl)cc4)[nH]n13)CCC2 | 14.3 | 9.12
7 | CCCCOC(=O)NS(=O)(=O)c1sc(CC(C)C)cc1-c1ccc(Cn2c(CC)nc3c(C)cc(C)nc32)cc1 | 47.2 | 30.7
8 | CN1CCN(C2Cc3ccccc3Sc3cc(C(F)(F)F)ccc32)CC1 (configuration not stated) | 17.4 | 14
9 | Cc1ccnc(Sc2ccc([N+](=O)[O-])cc2[N+](=O)[O-])n1 | 29.7 | 19.8
10 | CCOC(=O)COc1cc(O)c2c(=O)cc(-c3ccccc3)oc2c1 | 2.03 | 1.38
11 | Cc1cc(C)c(CSc2ncc(-c3ccc([N+](=O)[O-])cc3)[nH]2)c(C)c1 | 53.4 | 36.9
12 | O=C(NC1CCCC(C(F)(F)F)C1)c1ccc([N+](=O)[O-])o1 (configuration not stated) | 28.3 | 17.9
13 | O=C(CCl)NN=C(c1ccccc1)c1ccccc1 | 2.09 | 1.32
14 | CN(/N=C/c1cc(Br)cc(Br)c1O)c1cccc(C(F)(F)F)n1 | 11.2 | 7.9
15 | CC(C)NC(=S)N/N=C/c1cc(Br)ccc1O | > 100 | 29.5
16 | CCC(C)NC(=O)c1cn(CC)c2cc(N3CCN(C(=O)c4ccco4)CC3)c(F)cc2c1=O (configuration not stated) | 29.7 | 23.5
17 | O=C(NCCN1CCN(c2cccc(Cl)c2)CC1)c1ccc(CSc2nc3ccncc3[nH]2)cc1 | 32.1 | 21.8
18 | CN(C)c1ccc(O)c2c1CC1CC3[C@@H](N(C)C)C(=O)C(C(N)=O)C(=O)[C@]3(O)C(=O)C1C2=O (some centres not stated) | 3.99 | 1.93
19 | Cn1nnnc1Sc1ncnc2scc(-c3cc4ccccc4o3)c12 | 12.1 | 5.11
20 | C=C(C)CSc1cc(C)c(C#N)c2nc3ccccc3n12 | 52.3 | 31.5
21 | N#C/C=C\Oc1ccc(Cl)cc1N | 23.9 | 21.5
22 | COc1cc(C(=O)N/N=C/c2cc([N+](=O)[O-])cs2)cc(OC)c1OC | > 100 | 8.58

Row | Compound | IC90 [µM] | IC50 [µM]
23 | CCOC(=O)c1cnc(Nc2nc3ccccc3o2)nc1CSC(=S)N(CC)CC | 56.6 | 49.3
24 | CC(=O)n1cc(/C=C2/N=C(c3ccccc3)OC2=O)c2ccccc21 | > 100 | 43.4
25 | CCN1CCN(c2oc(COc3ccc(-c4ccccc4)cc3)nc2C#N)CC1 | 47.6 | 36.4
26 | O=C(/C=C/c1c(F)cccc1Cl)c1ccc(F)cc1 | 73 | 46.2
27 | COC(=O)N/N=C/c1c[n+]([O-])c2ccccc2[n+]1[O-] | 27.5 | 18.7
28 | COc1ccccc1NC(=O)c1ccc(NC(=O)CSc2nnnn2C)cc1 | 21.6 | 11.7
29 | NNC(=S)Nc1ccccc1Cl | 93 | 83.8
30 | CCOc1ccc(N2C=Nc3ccc(OCC)cc3C2)cc1 | > 100 | 79.2
31 | Cc1cc(N/N=C/c2ccccc2[N+](=O)[O-])nc(-n2nc(C)cc2C)n1 | 5.14 | 3.42
32 | Cc1ccccc1NC(=O)Cc1nc(COC(=O)/C=C/c2ccccc2)cs1 | 92.3 | 67.7
33 | CCCn1nnnc1NC(=O)c1ccc(C)cc1Cl | 33.1 | 16.1
34 | O=C(N/N=C\c1ccc[nH]1)c1cncc(Br)c1 | 50.8 | 45.3
35 | CN(c1ccccc1)S(=O)(=O)c1cccc(C(=O)NCc2ccccc2CN2CCCC2)c1 | 77.9 | 63.2
36 | O=C(CCl)Nc1sccc1C(=O)c1ccccc1 | 12.6 | 0.45
37 | CCOC(=O)c1c(-c2ccc(OC)cc2)csc1NC(=O)CNCc1ccco1 | 25.5 | 22.3
38 | COc1ccccc1C1CCN(Cc2ccc3ccccc3c2)CC1 | 24.6 | 21.8
39 | c1ccc(/N=C2\N=C(Nc3ccccn3)c3ccccc32)nc1 | 3.02 | 2.05
40 | C[CH2][Hg][S]c1ccccc1C(=O)O | 1.26 | 0.52
41 | CC1(C)Cc2c(C#N)c(N3CCN(C(=O)c4ccccc4)CC3)nc(Cc3ccccc3)c2CO1 | 46.9 | 31.4
42 | COc1ccc(C(=O)OCCNC(=O)c2c(Cl)nc3ccccn23)cc1 | 10.6 | 4.19
43 | CC1CCc2c(sc3ncnc(NCCCOC(C)C)c23)C1 (configuration not stated) | 74.2 | 59.3
44 | Oc1ccc(/C=N/NC(=S)N2CCOCC2)cc1 | 6.83 | 6.06
